Measurements published in patent publication US12649750B2, “Macrocyclic compounds, compositions, and methods of using thereof” (Sionna Therapeutics Inc., priority 2022, dated 2026).

Legend:
NBD1 = target: T1, NBD1 (Homo sapiens, UniProt P13569); assay: Aggregation analysis using differential static light scattering (DSLS), thermal stability of NBD1 (ΔTagg); format: binding; details: ΔTagg versus DMSO control, NBD1 0.2 mg/ml
T1 construct: Purified recombinant NBD1 was produced using previously described methods; made in house
Summary of the method: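 Purified recombinant NBD1 at 0.2 mg/ml in Tris buffer pH7.6 with 2 mM ATP, 5 mM MgCl2, 2 mM DTT and 1% glycerol was mixed with DMSO-dissolved compounds under mineral oil. Plates were heated at 1° C. per minute to 70° C., light scattering imaged every 0.5° C.; Tagg from curve inflection, minus DMSO-control mean.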

CFTR = target: T2, CFTR (Homo sapiens, UniProt P13569, DEL508-508); assay: TECC24 AUC fold over DMSO @10 μM, CFTR-mediated transepithelial chloride transport in CF-HBE cells; format: cell-based; details: test agent AUC divided by DMSO vehicle AUC, primary CF-HBE cells, ΔF508 homozygous donor, 48 hours incubation
T2 construct: Primary human bronchial epithelial cells from a ΔF508 homozygous CF donor; host or cells: primary human bronchial epithelial cells (CF-HBE), ΔF508 homozygous donor
Summary of the method: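 ΔF508-homozygous primary bronchial epithelial cells incubated 48 h at 36.5° C with compound (10 μM) in IL-13-containing medium, then TECC24 current-clamp recording in pH 7.4 Hepes saline with benzamil 10 μM, forskolin 10 μM, then CFTR inhibitor-172 20 μM. Equivalent Cl− current AUC between forskolin and inhibitor, expressed as fold over DMSO.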

T1 sequence (P13569 423-646 limits assumed): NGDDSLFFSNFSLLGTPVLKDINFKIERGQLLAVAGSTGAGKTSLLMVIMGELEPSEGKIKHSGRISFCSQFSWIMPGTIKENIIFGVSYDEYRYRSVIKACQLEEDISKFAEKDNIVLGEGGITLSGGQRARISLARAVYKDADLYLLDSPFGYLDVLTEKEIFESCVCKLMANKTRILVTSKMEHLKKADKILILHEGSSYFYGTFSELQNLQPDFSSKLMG
T2 sequence (P13569 with tags, fused parts or gaps DEL508-508): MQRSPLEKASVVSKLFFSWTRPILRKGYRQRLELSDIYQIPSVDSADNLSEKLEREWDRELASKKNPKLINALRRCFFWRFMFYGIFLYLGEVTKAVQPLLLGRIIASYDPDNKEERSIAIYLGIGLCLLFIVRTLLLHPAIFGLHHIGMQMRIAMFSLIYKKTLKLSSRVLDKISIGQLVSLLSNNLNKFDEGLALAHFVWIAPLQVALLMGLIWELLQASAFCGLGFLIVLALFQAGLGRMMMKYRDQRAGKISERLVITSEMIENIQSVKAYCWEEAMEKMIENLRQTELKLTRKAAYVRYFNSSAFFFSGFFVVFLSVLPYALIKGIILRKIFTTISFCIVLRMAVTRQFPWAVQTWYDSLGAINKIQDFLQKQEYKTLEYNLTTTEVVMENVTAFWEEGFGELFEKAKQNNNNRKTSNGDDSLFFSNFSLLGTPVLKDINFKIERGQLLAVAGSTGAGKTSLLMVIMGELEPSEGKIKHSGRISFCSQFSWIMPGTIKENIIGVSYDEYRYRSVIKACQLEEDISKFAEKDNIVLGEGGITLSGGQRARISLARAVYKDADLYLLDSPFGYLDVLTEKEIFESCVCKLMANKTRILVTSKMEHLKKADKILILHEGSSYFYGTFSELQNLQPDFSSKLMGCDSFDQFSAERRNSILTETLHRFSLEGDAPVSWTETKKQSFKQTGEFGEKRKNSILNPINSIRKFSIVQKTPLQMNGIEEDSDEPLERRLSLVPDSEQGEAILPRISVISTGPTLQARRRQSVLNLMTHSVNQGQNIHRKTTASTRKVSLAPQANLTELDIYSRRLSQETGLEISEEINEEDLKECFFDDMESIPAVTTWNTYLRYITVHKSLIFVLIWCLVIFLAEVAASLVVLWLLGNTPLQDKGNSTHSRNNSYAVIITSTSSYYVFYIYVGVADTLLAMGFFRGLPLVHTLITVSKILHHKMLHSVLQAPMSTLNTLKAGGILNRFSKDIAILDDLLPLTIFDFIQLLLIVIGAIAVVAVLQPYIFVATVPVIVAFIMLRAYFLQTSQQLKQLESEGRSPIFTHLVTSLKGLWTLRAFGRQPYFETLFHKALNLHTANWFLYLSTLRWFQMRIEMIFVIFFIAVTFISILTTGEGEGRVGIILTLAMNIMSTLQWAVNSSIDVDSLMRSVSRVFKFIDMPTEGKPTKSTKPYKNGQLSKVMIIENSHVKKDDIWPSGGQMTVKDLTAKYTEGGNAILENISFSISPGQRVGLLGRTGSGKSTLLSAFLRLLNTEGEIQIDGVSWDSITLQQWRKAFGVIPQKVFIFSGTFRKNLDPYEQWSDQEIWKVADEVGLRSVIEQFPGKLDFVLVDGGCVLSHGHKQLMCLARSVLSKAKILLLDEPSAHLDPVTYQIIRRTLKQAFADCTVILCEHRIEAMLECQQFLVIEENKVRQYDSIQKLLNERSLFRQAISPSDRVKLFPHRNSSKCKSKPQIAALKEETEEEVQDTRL

Row | Structure (SMILES) | DSLS 3D (100 μM ΔT) (NBD1) | TECC (AUC, 10 μM) (CFTR)
1 | Cn1nc2nc1-c1cc(ccn1)Oc1c(F)c(F)c3[nH]ccc3c1CCS(=O)(=O)CC(C)(C)CCC[C@]2(C)c1cccc(CCO)c1 [Compound 258, 2-[3-[(6R)-21,22-Difluoro-3,6,10,10-tetramethyl-12,12-dioxo-24-oxa-12λ6-thia-3,4,19,28,30-pentazapentacyclo[23.3.1.12,5.015,23.016,20]triaconta-1(29),2(30),4,15,17,20,22,25,27-nonaen-6-yl]phenyl]ethanol] | C (a value greater than 10 °C and less than or equal to 25 °C is marked “C”) | C (a value between 20 and 80 is marked “C”)
2 | C[C@@H](Cc1cccc([C@@]2(C)CCCC(C)(C)CS(=O)(=O)CCc3c(c(F)c(F)c4[nH]ccc34)Oc3ccnc(c3)-c3nc2nn3C)c1)C(=O)O [Compound 262, (2S)-3-[3-[(6R)-21,22-Difluoro-3,6,10,10-tetramethyl-12,12-dioxo-24-oxa-12λ6-thia-3,4,19,28,30-pentazapentacyclo[23.3.1.12,5.015,23.016,20]triaconta-1(29),2(30),4,15,17,20,22,25,27-nonaen-6-yl]phenyl]-2-methyl-propanoic Acid] | C (a value greater than 10 °C and less than or equal to 25 °C is marked “C”) | C (a value between 20 and 80 is marked “C”)
3 | C[C@@H](O)Cc1cccc([C@@]2(C)CCCC(C)(C)CS(=O)(=O)CCc3c(c(F)cc4[nH]ccc34)Sc3ccc(F)c(c3)-c3nc2nn3C)c1 [Compound 263, (2R)-1-[3-[(6R)-22,28-difluoro-3,6,10,10-tetramethyl-12,12-dioxo-12λ6,24-dithia-3,4,19,30-tetrazapentacyclo[23.3.1.12,5.015,23.016,20]triaconta-1(29),2(30),4,15,17,20,22,25,27-nonaen-6-yl]phenyl]propan-2-ol] | B (a value above 5 °C and less than or equal to 10 °C is marked “B”) | C (a value between 20 and 80 is marked “C”)
4 | COC(=O)[C@H](C)Cc1cccc([C@@]2(C)CCCC(C)(C)CS(=O)(=O)CCc3c(c(F)cc4[nH]ccc34)Oc3cnnc(c3)-c3nc2nn3C)c1 [Compound 265, Methyl (2R)-3-[3-[(6R)-22-fluoro-3,6,10,10-tetramethyl-12,12-dioxo-24-oxa-12λ6-thia-3,4,19,27,28,30-hexazapentacyclo[23.3.1.12,5.015,23.016,20]triaconta-1(29),2(30),4,15,17,20,22,25,27-nonaen-6-yl]phenyl]-2-methyl-propanoate] | B (a value above 5 °C and less than or equal to 10 °C is marked “B”) | C (a value between 20 and 80 is marked “C”)
5 | C[C@@H](Cc1cccc([C@@]2(C)CCCC(C)(C)CS(=O)(=O)CCc3c(c(F)c(F)c4[nH]ccc34)[S+]([O-])c3ccnc(c3)-c3nc2nn3C)c1)C(=O)O (stereo partly drawn) [Compound 267, (2S)-3-[3-[(6R)-21,22-Difluoro-3,6,10,10-tetramethyl-12,12,24-trioxo-12λ6,24λ4-dithia-3,4,19,28,30-pentazapentacyclo[23.3.1.12,5.015,23.016,20]triaconta-1(29),2(30),4,15,17,20,22,25,27-nonaen-6-yl]phenyl]-2-methyl-propanoic Acid] | C (a value greater than 10 °C and less than or equal to 25 °C is marked “C”) | C (a value between 20 and 80 is marked “C”)
6 | C[C@@H](Cc1cccc([C@@]2(C)CCCC(C)(C)CS(=O)(=O)CCc3c(c(F)c(F)c4[nH]ccc34)Sc3ccnc(c3)-c3nc2nn3C)c1)C(=O)O [Compound 268, (2S)-3-[3-[(6R)-21,22-Difluoro-3,6,10,10-tetramethyl-12,12-dioxo-12λ6,24-dithia-3,4,19,28,30-pentazapentacyclo[23.3.1.12,5.015,23.016,20]triaconta-1(29),2(30),4,15,17,20,22,25,27-nonaen-6-yl]phenyl]-2-methyl-propanoic Acid] | C (a value greater than 10 °C and less than or equal to 25 °C is marked “C”) | B (a value between 12-20 is marked “B”)
7 | C[C@H](Cc1cccc([C@@]2(C)CCCC(C)(C)CS(=O)(=O)CCc3c(c(F)c(F)c4[nH]ccc34)Sc3ccnc(c3)-c3nc2nn3C)c1)C(=O)O [Compound 270, (2R)-3-[3-[(6R)-21,22-difluoro-3,6,10,10-tetramethyl-12,12-dioxo-12λ6,24-dithia-3,4,19,28,30-pentazapentacyclo[23.3.1.12,5.015,23.016,20]triaconta-1(29),2(30),4,15,17,20,22,25,27-nonaen-6-yl]phenyl]-2-methyl-propanoic Acid] | C (a value greater than 10 °C and less than or equal to 25 °C is marked “C”) | B (a value between 12-20 is marked “B”)
8 | Cn1nc2nc1-c1cc(ccn1)Sc1c(F)cc3[nH]ccc3c1CCS(=O)(=O)CC(C)(C)CCC[C@]2(C)c1cccc(CC2(C(=O)O)CC2)c1 [Compound 272, 1-[[3-[(6R)-22-Fluoro-3,6,10,10-tetramethyl-12,12-dioxo-12λ6,24-dithia-3,4,19,28,30-pentazapentacyclo[23.3.1.12,5.015,23.016,20]triaconta-1(29),2(30),4,15,17,20,22,25,27-nonaen-6-yl]phenyl]methyl]cyclopropanecarboxylic Acid] | C (a value greater than 10 °C and less than or equal to 25 °C is marked “C”) | C (a value between 20 and 80 is marked “C”)
9 | Cn1nc2nc1-c1cc(ccn1)Sc1c(F)cc3[nH]ccc3c1CCS(=O)(=O)CC(C)(C)CCC[C@]2(C)c1cccc(CC(C)(C)C(=O)O)c1 [Compound 273, 3-[3-[(6R)-22-Fluoro-3,6,10,10-tetramethyl-12,12-dioxo-12λ6,24-dithia-3,4,19,28,30-pentazapentacyclo[23.3.1.12,5.015,23.016,20]triaconta-1(29),2(30),4,15,17,20,22,25,27-nonaen-6-yl]phenyl]-2,2-dimethyl-propanoic Acid] | C (a value greater than 10 °C and less than or equal to 25 °C is marked “C”) | B (a value between 12-20 is marked “B”)
10 | Cn1nc2nc1-c1cc(ccn1)Sc1c(F)c(F)c3[nH]ccc3c1CCS(=O)(=O)CC(C)(C)CCC[C@]2(C)c1cccc(CC(C)(C)C(=O)O)c1 [Compound 275, 3-[3-[(6R)-21,22-Difluoro-3,6,10,10-tetramethyl-12,12-dioxo-12λ6,24-dithia-3,4,19,28,30-pentazapentacyclo[23.3.1.12,5.015,23.016,20]triaconta-1(29),2(30),4,15,17,20,22,25,27-nonaen-6-yl]phenyl]-2,2-dimethyl-propanoic Acid] | C (a value greater than 10 °C and less than or equal to 25 °C is marked “C”) | C (a value between 20 and 80 is marked “C”)
